Series [1] is described as follows: Cytotoxicity MTT assay (0.1–1000 µM), CC50. In kind it is cell-based, Macaca mulatta. Particulars: Macaca mulatta, LLC-MK2 cells. (In general: Tetrazolium dyes change colour on reduction, which living cells bring about.)
A short description of series [2]: Cytotoxicity MTT assay (0.1–1000 µM), CC50. In kind it is cell-based, Mus musculus. Particulars: Mus musculus, NCTC clone 929 cells, Table S2, range 0.1-1000 µM, NCTC clone 929; read-out: Cell line (CC50 M) NCTC clone 929.
The nature of series [3]: Cytotoxicity MTT assay (0.1–1000 µM), CC50. In kind it is cell-based, Human. Particulars: human, HeLa cells.
The nature of series [4]: Cytotoxicity screening at 10 µM (MTT). In kind it is cell-based, Human. Particulars: human, HeLa cells, read-out: Cell line (viability %) HeLa.
Series [5] deals with Encephalomyocarditis virus (EMCV). Put plainly: Antiviral activity assay (0.1–1000 µM), IC50. In kind it is cell-based. Particulars: Cardiovirus A, Table S4, range 0.1-1000 µM, read-out: IC50 (M) EMCV. The procedure, abridged:
(§1)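 Confluent cell monolayers were infected (AdV5 and EMCV MOI 0.005, HPIV-3 MOI 0.01, 1-h adsorption; HCMV 20 PFU/well, 2-h adsorption), then incubated at 37 °C with compounds (0.1–1000 µM) in 2% FBS MEM until CPE appeared. Infection was read by MTT or, for HCMV, plaque counting. IC50 was the concentration halving plaques versus untreated infected controls.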

The test system of series [6] is Human adenovirus 5 (AdV5). Briefly: Antiviral activity assay (0.1–1000 µM), IC50. The settings on record: Human mastadenovirus C; Table S4, range 0.1-1000 µM, AdV5; read-out: IC50 (M) AdV5. In kind it is cell-based. The procedure, abridged:
as §1

For series [7], the system named is Human parainfluenza virus type 3 (HPIV-3). Briefly: Antiviral activity assay (0.1–1000 µM), IC50. In kind it is cell-based. The settings on record: Human respirovirus 3, Table S4, range 0.1-1000 µM, HPIV-3; read-out: IC50 (M) HPIV-3. The procedure, abridged: as §1

Read-outs that look alike come from different tables or passages of the source. Some results are limits rather than exact numbers.

Take `Cc1c(C)n(Cc2ccccc2)c(=S)n1Cc1ccccc1` [Compound 10a]: the CC50 (usually the concentration at which the toxic effect on the cells reaches its halfway point) at 48 h was < 20 µM in series [1] (LLC-MK2, MTT, 48 h, read-out: CC50 Normal Cell Lines LLC-MK2); 16.2 ± 3.75 µM in series [1] (Table S2, range 0.1-1000 µM, LLC-MK2, read-out: Cell line (CC50 M) LLC-MK2); 46 ± 6.93 µM in series [2]; < 20 µM in series [3] (MTT, 48 h, read-out: CC50 Cancer Cell Lines HeLa); 16.9 ± 2.19 µM in series [3] (Table S2, range 0.1-1000 µM, read-out: Cell line (CC50 M) HeLa). For the same compound, the viability (in general, the share of living cells, or the viability signal relative to a control) at 48 h, 10 µM in series [4] stood at 61.1%. For the same compound, the IC50 (as a rule, the midpoint of a concentration-inhibition curve) in series [5] is > 4.6e-05 M; in series [6], > 1.69e-05 M; in series [7], > 1.62e-05 M.

For the origin of these results see PMC9181938, “Fluorinated Analogues of Lepidilines A and C: Synthesis and Screening of Their Anticancer and Antiviral Activity” (Molecules, 2022).
